According to PMC3519909 (PLoS Biology, 2012):

Columns and labels:
Ima5 = biological target: T1, Ima5 (Saccharomyces cerevisiae, UniProt P40884); test: glucose release, crude extract of IMA5-overexpressing yeast; type: biochemical; settings: relative to ima5 deletion mutant
T1 construct: crude extract of yeast overexpressing IMA5, compared with ima5 deletion mutant
T1 sequence (P40884 1-581): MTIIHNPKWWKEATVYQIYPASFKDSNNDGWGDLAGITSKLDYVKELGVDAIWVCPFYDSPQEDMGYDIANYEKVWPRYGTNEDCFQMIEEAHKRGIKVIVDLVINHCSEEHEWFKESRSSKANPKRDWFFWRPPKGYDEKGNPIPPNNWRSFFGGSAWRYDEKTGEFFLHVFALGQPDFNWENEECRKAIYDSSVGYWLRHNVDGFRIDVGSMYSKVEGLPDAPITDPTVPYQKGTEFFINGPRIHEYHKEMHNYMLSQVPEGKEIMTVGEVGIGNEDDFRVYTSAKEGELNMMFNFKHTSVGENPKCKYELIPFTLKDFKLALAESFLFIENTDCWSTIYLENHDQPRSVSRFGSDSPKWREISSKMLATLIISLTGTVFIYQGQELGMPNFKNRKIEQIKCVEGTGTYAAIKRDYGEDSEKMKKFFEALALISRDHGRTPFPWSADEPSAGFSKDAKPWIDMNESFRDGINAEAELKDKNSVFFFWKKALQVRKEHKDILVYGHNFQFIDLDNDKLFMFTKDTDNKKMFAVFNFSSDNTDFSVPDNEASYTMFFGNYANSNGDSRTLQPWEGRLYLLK

K. lactis [GI: 50312678] = biological target: T2, K. lactis [GI: 50312678] (Kluyveromyces lactis, UniProt Q6CSK8); test: glucose oxidase/peroxidase coupled glucose release; type: biochemical; settings: Michaelis-Menten or Hill fit
T2 construct: gene KLLA0_B00242g

[1] = substrate: CO[C@H]1O[C@H](CO)[C@@H](O)[C@H](O)[C@H]1O; test: glucose oxidase/peroxidase coupled glucose release; type: biochemical, Saccharomyces cerevisiae; settings: Michaelis-Menten or Hill fit

T2 sequence (Q6CSK8 entry or part of it): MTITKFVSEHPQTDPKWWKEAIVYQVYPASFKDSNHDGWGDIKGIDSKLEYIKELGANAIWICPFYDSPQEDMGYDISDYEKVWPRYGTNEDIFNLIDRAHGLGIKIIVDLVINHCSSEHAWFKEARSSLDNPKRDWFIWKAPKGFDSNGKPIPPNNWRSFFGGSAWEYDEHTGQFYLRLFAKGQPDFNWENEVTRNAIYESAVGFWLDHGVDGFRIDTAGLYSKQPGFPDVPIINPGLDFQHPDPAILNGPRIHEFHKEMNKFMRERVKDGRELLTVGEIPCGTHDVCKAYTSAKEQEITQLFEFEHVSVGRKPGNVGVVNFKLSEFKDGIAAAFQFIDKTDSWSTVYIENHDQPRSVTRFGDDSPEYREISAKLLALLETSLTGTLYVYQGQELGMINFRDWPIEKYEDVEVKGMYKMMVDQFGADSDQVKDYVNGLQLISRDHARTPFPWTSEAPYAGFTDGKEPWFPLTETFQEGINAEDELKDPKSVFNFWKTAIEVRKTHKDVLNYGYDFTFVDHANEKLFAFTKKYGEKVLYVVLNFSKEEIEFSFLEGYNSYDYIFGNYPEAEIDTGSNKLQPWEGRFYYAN

OC[C@H]1O[C@H](OC[C@H]2OC(O)[C@H](O)[C@@H](O)[C@@H]2O)[C@H](O)[C@@H](O)[C@@H]1O (stereo partly shown) [isomaltose]
relative activity (Ima5): relative enzyme activity in crude extracts derived from a yeast strain overexpressing IMA5

OC[C@H]1O[C@H](O[C@H]2[C@H](O)[C@@H](O)C(O)O[C@@H]2CO)[C@H](O)[C@@H](O)[C@@H]1O (stereo partly shown) [maltose]
Km (K. lactis [GI: 50312678]): one of the paralogs retains the broad specificity of ancMalS

B1: Ima1 (Saccharomyces cerevisiae S288C) (protein)
chain: TISSAHPETEPKWWKEATFYQIYPASFKDSNDDGWGDMKGIASKLEYIKELGADAIWISPFYDSPQDDMGYDIANYEKVWPTYGTNEDCFALIEKTHKLGMKFITDLVINHCSSEHEWFKESRSSKTNPKRDWFFWRPPKGYDAEGKPIPPNNWKSYFGGSAWTFDEKTQEFYLRLFCSTQPDLNWENEDCRKAIYESAVGYWLDHGVDGFRIDVGSLYSKVVGLPDAPVVDKNSTWQSSDPYTLNGPRIHEFHQEMNQFIRNRVKDGREIMTVGEMQHASDETKRLYTSASRHELSELFNFSHTDVGTSPLFRYNLVPFELKDWKIALAELFRYINGTDCWSTIYLENHDQPRSITRFGDDSPKNRVISGKLLSVLLSALTGTLYVYQGQELGQINFKNWPVEKYEDVEIRNNYNAIKEEHGENSEEMKKFLEAIALISRDHARTPMQWSREEPNAGFSGPSAKPWFYLNDSFREGINVEDEIKDPNSVLNFWKEALKFRKAHKDITVYGYDFEFIDLDNKKLFSFTKKYNNKTLFAALNFSSDATDFKIPNDDSSFKLEFGNYPKKEVDASSRTLKPWEGRIYISE
notes: purified present-day enzyme; expression details in Text S1
Km [1]: 16.40 ± 0.73 mM
kcat [1]: 0.2688 ± 0.00167 s⁻¹
